Reference: ChEMBL document CHEMBL4414676, “Quinazoline-Containing Indole Alkaloids from the Marine-Derived Fungus Aspergillus sp. HNMF114” (J Nat Prod, 2019)
Active and inactive are the calls of the source. No cut-off for these calls is given here.

What was measured:
HeLa = test: Antiproliferative activity against human HeLa cells after 24 to 72 hrs by MTT assay; format: functional, cell-based
A549 = test: Antiproliferative activity against human A549 cells after 24 to 72 hrs by MTT assay; format: functional, cell-based
Bacillus subtilis = test: Antibacterial activity against Bacillus subtilis after 24 hrs by two fold dilution assay; format: functional, organism-based
Escherichia coli = test: Antibacterial activity against Escherichia coli after 24 hrs by two fold dilution assay; format: functional, organism-based
SGC-7901 = test: Antiproliferative activity against human SGC7901 cells after 24 to 72 hrs by MTT assay; format: functional, cell-based
Staphylococcus aureus = test: Antibacterial activity against Staphylococcus aureus after 24 hrs by two fold dilution assay; format: functional, organism-based
K562 = test: Antiproliferative activity against human K562 cells after 24 to 72 hrs by MTT assay; format: functional, cell-based
Streptococcus agalactiae = test: Antibacterial activity against Streptococcus agalactiae after 24 hrs by two fold dilution assay; format: functional, organism-based
[1] = Inhibition of quorum sensing in C6-HSL-induced Chromobacterium violaceum CV026 assessed as […] by measuring minimum inhibitory dose per well after 18 hrs by well diffusion method

| Structure (SMILES) | Activity (HeLa) | Activity (A549) | Activity (Bacillus subtilis) | Activity (Escherichia coli) | Activity (SGC-7901) | Activity (Staphylococcus aureus) | Activity (K562) | Activity (Streptococcus agalactiae) | MIC [1] [µg] |
| --- | --- | --- | --- | --- | --- | --- | --- | --- | --- |
| CC(=O)O[C@@H](c1nc2ccccc2c(=O)n1[C@H]1C[C@]2(OC1=O)c1ccccc1N1C(=O)C(C)(C)N[C@H]12)C(C)C | inactive | inactive | inactive | inactive | inactive | inactive | inactive | inactive |  |
| CC(C)[C@@]1(O)NC(=O)[C@@H](C[C@]2(O)c3ccccc3N3C(=O)C(C)(C)N(O)[C@H]32)n2c1nc1ccccc1c2=O | inactive | inactive | inactive | inactive | inactive | inactive | inactive | inactive |  |
| CC(=O)O[C@H](c1nc2ccccc2c(=O)n1[C@@H]1C[C@]2(OC1=O)c1ccccc1N1C(=O)C(C)(C)N(O)[C@H]12)C(C)C | inactive | inactive | inactive | inactive | inactive | inactive | inactive | inactive |  |
| CC1(C)C(=O)N2c3ccccc3[C@@]3(C[C@H]4n5c(nc6ccccc6c5=O)C(=O)C(C)(C)[C@@]4(O)O3)[C@@H]2N1O | inactive | inactive | inactive | inactive | inactive | inactive | inactive | inactive |  |
| CC(C)[C@H](O)c1nc2ccccc2c(=O)n1[C@H]1C[C@]2(OC1=O)c1ccccc1N1C(=O)C(C)(C)N(S(C)(=O)=O)[C@H]12 | inactive | inactive | inactive | inactive | inactive | inactive | inactive | inactive |  |
| CC(=O)OC(c1nc2ccccc2c(=O)n1[C@@H]1C[C@]2(OC1=O)C(=O)Nc1ccccc12)C(C)C (some centres not stated) | inactive | inactive | inactive | inactive | inactive | inactive | inactive | inactive | 32 |
| O=C1C=C(Br)/C(=C/Br)O1 |  |  |  |  |  |  |  |  | 1 |
| CC1(C)C(=O)N2c3ccccc3[C@@]3(C[C@H](n4cnc5ccccc5c4=O)C(=O)O3)[C@@H]2N1O | inactive | inactive | inactive | inactive | inactive | inactive | inactive | inactive |  |
| O=C1N[C@@H]2c3nc4ccccc4c(=O)n3[C@@H]1C[C@@]21C(=O)Nc2ccccc21 | inactive | inactive | inactive | inactive | inactive | inactive | inactive | inactive |  |
| CC(C)=C1NC(=O)[C@@H](C[C@@]2(O)C(=O)Nc3ccccc32)n2c1nc1ccccc1c2=O | inactive | inactive | inactive | inactive | inactive | inactive | inactive | inactive | 16 |
| CC(C)[C@H](O)c1nc2ccccc2c(=O)n1[C@H]1C[C@]2(OC1=O)c1ccccc1N1C(=O)C(C)(C)N(O)[C@H]12 | inactive | inactive | inactive | inactive | inactive | inactive | inactive | inactive |  |
| CC(C)[C@@H](O)c1nc2ccccc2c(=O)n1[C@H]1C[C@]2(OC1=O)c1ccccc1N1C(=O)C(C)(C)N(O)[C@H]12 | inactive | inactive | inactive | inactive | inactive | inactive | inactive | inactive |  |
| O=C1N[C@H]2c3nc4ccccc4c(=O)n3[C@@H]1C[C@@]21c2ccccc2N2C(=O)[C@@H]3CCCN3[C@H]21 | inactive | inactive | inactive | inactive | inactive | inactive | inactive | inactive |  |
| CC(=O)O[C@H](c1nc2ccccc2c(=O)n1[C@@H]1C[C@]2(OC1=O)c1ccccc1N1C(=O)C(C)(C)N[C@H]12)C(C)C | inactive | inactive | inactive | inactive | inactive | inactive | inactive | inactive |  |
| CC(C)[C@@H]1NC(=O)[C@@H](C[C@]2(O)c3ccccc3N3C(=O)C(C)(C)N[C@H]32)n2c1nc1ccccc1c2=O | inactive | inactive | inactive | inactive | inactive | inactive | inactive | inactive |  |
| CCC(=O)O[C@H](c1nc2ccccc2c(=O)n1[C@@H]1C[C@]2(OC1=O)c1ccccc1N1C(=O)C(C)(C)N(O)[C@H]12)C(C)C | inactive | inactive | inactive | inactive | inactive | inactive | inactive | inactive |  |
| CC(=O)OC(c1nc2ccccc2c(=O)n1[C@H]1C[C@@]2(OC1=O)C(=O)Nc1ccccc12)C(C)C (some centres not stated) | inactive | inactive | inactive | inactive | inactive | inactive | inactive | inactive | 32 |
